How the values were obtained:
[1] = tested on: sugar beet; experiment: Test B pre/postemergence sugar beet; type: in vivo, Beta vulgaris
Procedure, shortened: (§1)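 Response is a visual 0-to-10 score relative to untreated plants, where 0 means no effect and 10 means complete control, taken twelve to sixteen days after application. Treatments went onto soil at planting and onto foliage of 1- to 4-leaf plants, using a surfactant-containing non-phytotoxic solvent.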

[2] = tested on: smallflower flatsedge; experiment: Test B flood test smallflower flatsedge; type: in vivo, Cyperus difformis
Procedure, shortened: (§2)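 Flood test on plants grown to the 2-leaf stage; treated plants kept in greenhouse twelve to sixteen days, then visually rated against controls on a 0 (no effect) to 10 (complete control) scale.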

[3] = tested on: bedstraw; experiment: Test B pre/postemergence bedstraw; type: in vivo, Galium aparine
Procedure, shortened: as §1

[4] = tested on: rape; experiment: Test B pre/postemergence rape; type: in vivo, Brassica napus
Procedure, shortened: as §1

[5] = tested on: corn; experiment: Test B pre/postemergence corn; type: in vivo, Zea mays
Procedure, shortened: as §1

[6] = tested on: rice; experiment: Test B flood test rice; type: in vivo, Oryza sativa
Procedure, shortened: as §2

[7] = tested on: velvetleaf; experiment: Test B pre/postemergence velvetleaf; type: in vivo, Abutilon theophrasti
Procedure, shortened: as §1

[8] = tested on: soybean; experiment: Test B pre/postemergence soybean; type: in vivo, Glycine max
Procedure, shortened: as §1

[9] = tested on: morningglory; experiment: Test B pre/postemergence morningglory; type: in vivo, Ipomoea hederacea
Procedure, shortened: as §1

[10] = tested on: pigweed; experiment: Test B pre/postemergence pigweed; type: in vivo, Amaranthus retroflexus
Procedure, shortened: as §1

[11] = tested on: blackgrass; experiment: Test B pre/postemergence blackgrass; type: in vivo, Alopecurus myosuroides
Procedure, shortened: as §1

[12] = tested on: giant foxtail; experiment: Test B pre/postemergence giant foxtail; type: in vivo, Setaria faberii
Procedure, shortened: as §1

[13] = tested on: surinam grass; experiment: Test B pre/postemergence surinam grass; type: in vivo, Brachiaria decumbens
Procedure, shortened: as §1

[14] = tested on: purple nutsedge; experiment: Test B pre/postemergence purple nutsedge; type: in vivo, Cyperus rotundus; conditions: Postemergence
Procedure, shortened: as §1

[15] = tested on: bamyardgrass; experiment: Test B flood test barnyardgrass; type: in vivo, Echinochloa crus-galli
Procedure, shortened: as §2

[16] = tested on: duck salad; experiment: Test B flood test duck salad; type: in vivo, Heteranthera limosa
Procedure, shortened: as §2

[17] = Preemergence, Rate 62 g/ha, scale of 0 to 10 where 0 is no effect and 10 is complete control
[18] = Preemergence, Rate 250 g/ha, scale of 0 to 10 where 0 is no effect and 10 is complete control
[19] = Preemergence, Rate 500 g/ha, scale of 0 to 10 where 0 is no effect and 10 is complete control
[20] = Rate 62 g/ha, Postemergence, scale of 0 to 10 where 0 is no effect and 10 is complete control
[21] = Rate 125 g/ha, Postemergence, scale 0 to 10
[22] = Rate 125 g/ha, Preemergence, scale of 0 to 10 where 0 is no effect and 10 is complete control
[23] = Rate 500 g/ha, Postemergence, scale 0 to 10, 0 no effect, 10 complete control
[24] = Rate 62 g/ha, headed Pre-emergence (flood test species), scale 0 to 10 (0 no effect, 10 complete control)
[25] = Rate 125 g/ha, Pre-emergence, flood test species, scale 0 to 10 where 0 is no effect and 10 is complete control
[26] = Rate 250 g/ha, Pre-emergence, flood-test species, scale 0 to 10, 0 is no effect, 10 is complete control
[27] = Rate 500 g/ha, Pre-emergence, flood test species, scale 0 to 10 (0 no effect, 10 complete control)

`Cc1ccccc1-n1c(=O)on(C(=O)N(c2ccc(N(C)C)cc2)C(C)C)c1=O` [Compound 237] was tested, and the “Sugarbeets plant response rating” value [1, 17] was 0, the “Sugarbeets plant response rating” value [1, 18] was 0 and the “Plant response rating, Sugarbeets” value [1, 19] was 0. For the same compound, the “Sugarbeets plant response rating” value [1, 20] was 0, the “Sugarbeets plant response rating” value [1, 21] was 0 and the “Sugarbeets plant response rating” value [1, 22] was 0. For the same compound, the “Plant response rating (0 to 10; 0 is no effect, 10 is complete control), Sugarbeets” value ([1]; Rate 250 g/ha, Postemergence) was 0, the “Sugarbeets plant response rating” value [1, 23] was 0 and the “S. Flatsedge plant response rating” value [2, 24] was 0. For the same compound, the “S. Flatsedge plant response rating” value [2, 25] was 0, the “S. Flatsedge plant response rating” value [2, 26] was 0 and the “S. Flatsedge plant response rating” value [2, 27] was 0. The “Bedstraw plant response rating” value [3, 17] was 0, the “Bedstraw plant response rating” value [3, 18] was 0 and the “Plant response rating, Bedstraw” value [3, 19] was 0. For the same compound, the “Bedstraw plant response rating” value [3, 20] was 0, the “Bedstraw plant response rating” value [3, 21] was 0 and the “Bedstraw plant response rating” value [3, 22] was 0. The “Plant response rating (0 to 10; 0 is no effect, 10 is complete control), Bedstraw” value ([3]; Rate 250 g/ha, Postemergence) was 2, the “Bedstraw plant response rating” value [3, 23] was 3 and the “Rape plant response rating” value [4, 17] was 0. For the same compound, the “Rape plant response rating” value [4, 18] was 0, the “Plant response rating, Rape” value [4, 19] was 0 and the “Rape plant response rating” value [4, 20] was 0. The “Rape plant response rating” value [4, 21] was 0, the “Rape plant response rating” value [4, 22] was 0 and the “Plant response rating (0 to 10; 0 is no effect, 10 is complete control), Rape” value ([4]; Rate 250 g/ha, Postemergence) was 0. The “Rape plant response rating” value [4, 23] was 0, the “Corn plant response rating” value [5, 17] was 0 and the “Corn plant response rating” value [5, 18] was 0. The “Plant response rating, Corn” value [5, 19] was 0, the “Corn plant response rating” value [5, 20] was 0 and the “Corn plant response rating” value [5, 21] was 0. For the same compound, the “Corn plant response rating” value [5, 22] was 0, the “Plant response rating (0 to 10; 0 is no effect, 10 is complete control), Corn” value ([5]; Rate 250 g/ha, Postemergence) was 0 and the “Corn plant response rating” value [5, 23] was 0. For the same compound, the “Rice plant response rating” value [6, 24] was 0, the “Rice plant response rating” value [6, 25] was 0 and the “Rice plant response rating” value [6, 26] was 0. The “Rice plant response rating” value [6, 27] was 0, the “Velvetleaf plant response rating” value [7, 17] was 0 and the “Velvetleaf plant response rating” value [7, 18] was 0. For the same compound, the “Plant response rating, Velvetleaf” value [7, 19] was 0, the “Velvetleaf plant response rating” value [7, 20] was 0 and the “Velvetleaf plant response rating” value [7, 21] was 0. For the same compound, the “Velvetleaf plant response rating” value [7, 22] was 0, the “Plant response rating (0 to 10; 0 is no effect, 10 is complete control), Velvetleaf” value ([7]; Rate 250 g/ha, Postemergence) was 0 and the “Velvetleaf plant response rating” value [7, 23] was 2. For the same compound, the “Soybean plant response rating” value [8, 17] was 0, the “Soybean plant response rating” value [8, 18] was 0 and the “Plant response rating, Soybean” value [8, 19] was 0. The “Soybean plant response rating” value [8, 20] was 0, the “Soybean plant response rating” value [8, 21] was 1 and the “Soybean plant response rating” value [8, 22] was 0. For the same compound, the “Plant response rating (0 to 10; 0 is no effect, 10 is complete control), Soybean” value ([8]; Rate 250 g/ha, Postemergence) was 1, the “Soybean plant response rating” value [8, 23] was 1 and the “Morningglory plant response rating” value [9, 17] was 0. The “Morningglory plant response rating” value [9, 18] was 0, the “Plant response rating, Morningglory” value [9, 19] was 2 and the “Morningglory plant response rating” value [9, 20] was 2. The “Morningglory plant response rating” value [9, 21] was 2, the “Morningglory plant response rating” value [9, 22] was 0 and the “Plant response rating (0 to 10; 0 is no effect, 10 is complete control), Morningglory” value ([9]; Rate 250 g/ha, Postemergence) was 3. For the same compound, the “Morningglory plant response rating” value [9, 23] was 6, the “Redroot pigweed plant response rating” value [10, 17] was 0 and the “Redroot pigweed plant response rating” value [10, 18] was 0. For the same compound, the “Plant response rating, Redroot pigweed” value [10, 19] was 0, the “Redroot pigweed plant response rating” value [10, 20] was 0 and the “Redroot pigweed plant response rating” value [10, 21] was 0. For the same compound, the “Redroot pigweed plant response rating” value [10, 22] was 0, the “Plant response rating (0 to 10; 0 is no effect, 10 is complete control), Redroot pigweed” value ([10]; Rate 250 g/ha, Postemergence) was 2 and the “Redroot pigweed plant response rating” value [10, 23] was 3. The “Blackgrass plant response rating” value [11, 17] was 0, the “Blackgrass plant response rating” value [11, 18] was 0 and the “Plant response rating, Blackgrass” value [11, 19] was 0. The “Blackgrass plant response rating” value [11, 20] was 0, the “Blackgrass plant response rating” value [11, 21] was 0 and the “Blackgrass plant response rating” value [11, 22] was 0. The “Plant response rating (0 to 10; 0 is no effect, 10 is complete control), Blackgrass” value ([11]; Rate 250 g/ha, Postemergence) was 0, the “Blackgrass plant response rating” value [11, 23] was 0 and the “Giant foxtail plant response rating” value [12, 17] was 0. For the same compound, the “Giant foxtail plant response rating” value [12, 18] was 4, the “Plant response rating, Giant foxtail” value [12, 19] was 4 and the “Giant foxtail plant response rating” value [12, 20] was 0. The “Giant foxtail plant response rating” value [12, 21] was 0, the “Giant foxtail plant response rating” value [12, 22] was 0 and the “Plant response rating (0 to 10; 0 is no effect, 10 is complete control), Giant foxtail” value ([12]; Rate 250 g/ha, Postemergence) was 0. For the same compound, the “Giant foxtail plant response rating” value [12, 23] was 0, the “B. signalgrass plant response rating” value [13, 17] was 0 and the “B. signalgrass plant response rating” value ([13]; Preemergence, Rate 250 g/ha, scale 0 to 10, 0 is no effect, 10 is complete control) was 0. For the same compound, the “Plant response rating, B. signalgrass” value [13, 19] was 0, the “B. signalgrass plant response rating” value [13, 20] was 0 and the “B. signalgrass plant response rating” value ([13]; Rate 125 g/ha, Postemergence, scale 0 (no effect) to 10 (complete control)) was 0. For the same compound, the “B. signalgrass plant response rating” value [13, 22] was 0, the “Plant response rating (0 to 10; 0 is no effect, 10 is complete control), B. signalgrass” value ([13]; Rate 250 g/ha, Postemergence) was 0 and the “B. signalgrass plant response rating” value [13, 23] was 0. For the same compound, the “Nutsedge plant response rating” value ([14]; Rate 62 g/ha, scale of 0 to 10 where 0 is no effect and 10 is complete control) was 0, the “Nutsedge plant response rating” value ([14]; Rate 125 g/ha, scale 0 to 10) was 0 and the “Plant response rating (0 to 10; 0 is no effect, 10 is complete control), Nutsedge” value ([14]; Rate 250 g/ha) was 0. For the same compound, the “Nutsedge plant response rating” value ([14]; Rate 500 g/ha, scale 0 to 10, 0 no effect, 10 complete control) was 0, the “Barnyardgrass plant response rating” value [15, 24] was 0 and the “Barnyardgrass plant response rating” value [15, 25] was 0. The “Barnyardgrass plant response rating” value [15, 26] was 0, the “Barnyardgrass plant response rating” value [15, 27] was 0 and the “Ducksalad plant response rating” value [16, 24] was 0. The “Ducksalad plant response rating” value [16, 25] was 0, the “Ducksalad plant response rating” value [16, 26] was 0 and the “Ducksalad plant response rating” value [16, 27] was 0.
